Laboratory results: the NIST ThermoML archive (doi:10.1016/j.jct.2017.08.004)

Assay: molar heat capacity at constant pressure
Conditions: 101.33 kPa, Crystal

OC[C@@H](O)C(O)[C@H](O)CO [D-arabitol]
Conditions | molar heat capacity at constant pressure [J/K/mol]
1 K, relaxation calorimetry | 0.0009451
1.937 K, relaxation calorimetry | 0.004787
2 K, relaxation calorimetry | 0.005256
2.125 K, relaxation calorimetry | 0.006243
2.35 K, relaxation calorimetry | 0.008303
2.6 K, relaxation calorimetry | 0.01105
2.887 K, relaxation calorimetry | 0.01495
3 K, relaxation calorimetry | 0.01673
3.199 K, relaxation calorimetry | 0.02023
3.546 K, relaxation calorimetry | 0.02753
3.931 K, relaxation calorimetry | 0.03744
4 K, relaxation calorimetry | 0.04001
4.359 K, relaxation calorimetry | 0.05185
4.836 K, relaxation calorimetry | 0.07292
5 K, relaxation calorimetry | 0.08105
5.366 K, relaxation calorimetry | 0.1017
5.953 K, relaxation calorimetry | 0.1443
6 K, relaxation calorimetry | 0.1475
6.605 K, relaxation calorimetry | 0.205
7 K, relaxation calorimetry | 0.2508
7.334 K, relaxation calorimetry | 0.2964
8 K, relaxation calorimetry | 0.4038
8.14 K, relaxation calorimetry | 0.43
9 K, relaxation calorimetry | 0.6157
9.034 K, relaxation calorimetry | 0.6226
10 K, relaxation calorimetry | 0.8917
10.11 K, relaxation calorimetry | 0.9222
11.21 K, relaxation calorimetry | 1.313
12.44 K, relaxation calorimetry | 1.849
13.81 K, relaxation calorimetry | 2.558
15 K, relaxation calorimetry | 3.255
15.35 K, relaxation calorimetry | 3.473
17.03 K, relaxation calorimetry | 4.645
18.91 K, relaxation calorimetry | 6.093
20 K, relaxation calorimetry | 6.963
21.01 K, relaxation calorimetry | 7.823
23.33 K, relaxation calorimetry | 9.878
25 K, relaxation calorimetry | 11.45
25.91 K, relaxation calorimetry | 12.28
28.73 K, relaxation calorimetry | 15.02
30 K, relaxation calorimetry | 16.29
31.9 K, relaxation calorimetry | 18.17
35 K, relaxation calorimetry | 21.27
35.42 K, relaxation calorimetry | 21.72
39.33 K, relaxation calorimetry | 25.68
40 K, relaxation calorimetry | 26.29
43.65 K, relaxation calorimetry | 29.96
45 K, relaxation calorimetry | 31.26
48.46 K, relaxation calorimetry | 34.52
50 K, relaxation calorimetry | 36.09
53.77 K, relaxation calorimetry | 39.56
55 K, relaxation calorimetry | 40.76
59.7 K, relaxation calorimetry | 45.1
60 K, relaxation calorimetry | 45.36
65 K, relaxation calorimetry | 49.82
66.28 K, relaxation calorimetry | 51.01
70 K, relaxation calorimetry | 54.16
73.58 K, relaxation calorimetry | 57.16
75 K, relaxation calorimetry | 58.37
80 K, relaxation calorimetry | 62.48
81.67 K, relaxation calorimetry | 64.04
85 K, relaxation calorimetry | 66.48
90 K, relaxation calorimetry | 70.37
90.67 K, relaxation calorimetry | 71
95 K, relaxation calorimetry | 74.17
100 K, relaxation calorimetry | 77.87
100.64 K, relaxation calorimetry | 77.78
110 K, relaxation calorimetry | 85.02
110.77 K, relaxation calorimetry | 85.2
120 K, relaxation calorimetry | 91.85
120.77 K, relaxation calorimetry | 92.62
130 K, relaxation calorimetry | 98.42
130.79 K, relaxation calorimetry | 99.38
140 K, relaxation calorimetry | 104.78
140.95 K, relaxation calorimetry | 105.44
150 K, relaxation calorimetry | 110.97
151.07 K, relaxation calorimetry | 111.74
160 K, relaxation calorimetry | 117.04
161.18 K, relaxation calorimetry | 117.79
170 K, relaxation calorimetry | 123.02
171.3 K, relaxation calorimetry | 123.63
180 K, relaxation calorimetry | 128.94
181.38 K, relaxation calorimetry | 129.86
188.15 K, Small sample (50 mg) DSC | 120.48
189.15 K, Small sample (50 mg) DSC | 123.07
190 K, relaxation calorimetry | 134.84
190.15 K, Small sample (50 mg) DSC | 124.65
191.15 K, Small sample (50 mg) DSC | 125.58
191.48 K, relaxation calorimetry | 135.82
192.15 K, Small sample (50 mg) DSC | 126.38
193.15 K, Small sample (50 mg) DSC | 127.14
194.15 K, Small sample (50 mg) DSC | 128.51
195.15 K, Small sample (50 mg) DSC | 129.68
196.15 K, Small sample (50 mg) DSC | 130.93
197.15 K, Small sample (50 mg) DSC | 131.96
198.15 K, Small sample (50 mg) DSC | 132.82
199.15 K, Small sample (50 mg) DSC | 133.79
200 K, relaxation calorimetry | 140.73
200.15 K, Small sample (50 mg) DSC | 134.6
201.15 K, Small sample (50 mg) DSC | 135.54
201.59 K, relaxation calorimetry | 141.2
202.15 K, Small sample (50 mg) DSC | 136.28
203.15 K, Small sample (50 mg) DSC | 137.06
204.15 K, Small sample (50 mg) DSC | 137.97
205.15 K, Small sample (50 mg) DSC | 138.38
206.15 K, Small sample (50 mg) DSC | 139.19
207.15 K, Small sample (50 mg) DSC | 139.97
208.15 K, Small sample (50 mg) DSC | 140.52
209.15 K, Small sample (50 mg) DSC | 141.24
210 K, relaxation calorimetry | 146.63
210.15 K, Small sample (50 mg) DSC | 141.94
211.15 K, Small sample (50 mg) DSC | 142.48
211.7 K, relaxation calorimetry | 147.25
212.15 K, Small sample (50 mg) DSC | 142.99
213.15 K, Small sample (50 mg) DSC | 143.53
214.15 K, Small sample (50 mg) DSC | 144.41
215.15 K, Small sample (50 mg) DSC | 145.07
216.15 K, Small sample (50 mg) DSC | 145.48
217.15 K, Small sample (50 mg) DSC | 146.17
218.15 K, Small sample (50 mg) DSC | 147.07
219.15 K, Small sample (50 mg) DSC | 147.64
220 K, relaxation calorimetry | 152.57
220.15 K, Small sample (50 mg) DSC | 148.47
221.15 K, Small sample (50 mg) DSC | 149.24
221.79 K, relaxation calorimetry | 153.65
222.15 K, Small sample (50 mg) DSC | 149.98
223.15 K, Small sample (50 mg) DSC | 150.71
224.15 K, Small sample (50 mg) DSC | 151.3
225.15 K, Small sample (50 mg) DSC | 152.01
226.15 K, Small sample (50 mg) DSC | 152.68
227.15 K, Small sample (50 mg) DSC | 153.31
228.15 K, Small sample (50 mg) DSC | 153.85
229.15 K, Small sample (50 mg) DSC | 154.52
230 K, relaxation calorimetry | 158.55
230.15 K, Small sample (50 mg) DSC | 155.25
231.15 K, Small sample (50 mg) DSC | 155.76
231.88 K, relaxation calorimetry | 159.8
232.15 K, Small sample (50 mg) DSC | 156.46
233.15 K, Small sample (50 mg) DSC | 157.18
234.15 K, Small sample (50 mg) DSC | 157.71
235.15 K, Small sample (50 mg) DSC | 158.49
236.15 K, Small sample (50 mg) DSC | 159.12
237.15 K, Small sample (50 mg) DSC | 159.84
238.15 K, Small sample (50 mg) DSC | 160.39
239.15 K, Small sample (50 mg) DSC | 160.99
240 K, relaxation calorimetry | 164.59
240.15 K, Small sample (50 mg) DSC | 161.64
241.15 K, Small sample (50 mg) DSC | 162.22
241.88 K, relaxation calorimetry | 165.73
242.15 K, Small sample (50 mg) DSC | 162.77
243.15 K, Small sample (50 mg) DSC | 163.32
244.15 K, Small sample (50 mg) DSC | 163.71
245.15 K, Small sample (50 mg) DSC | 164.33
246.15 K, Small sample (50 mg) DSC | 165.01
247.15 K, Small sample (50 mg) DSC | 165.5
248.15 K, Small sample (50 mg) DSC | 166.22
249.15 K, Small sample (50 mg) DSC | 167
250 K, relaxation calorimetry | 170.71
